Laboratory results from patent publication US20040029138A1, “Global electronic medicine response profile testing network” (priority 2003, published 2004).
Where a name gives a salt, the structure may show the parent alone.

Experiments:
[1] = tested on: subjects with IBS; assay: Double blind, placebo controlled clinical trials of alosetron for IBS, response stratified by 5HTT genotype; format: in vivo, human; settings: for Relief of IBS symptoms (subjects achieving relief): 12 weeks treatment
Description: Genetic samples were obtained from 219 female human subjects enrolled in clinical trials of alosetron for the treatment of IBS. Using PCR technology as is known in the art, an insertion/deletion genetic marker was assayed in the 5-hydroxytryptamine-transporter gene (5HTT gene). The alleles were labeled as “del” (deletion) or “ins” (insertion) resulting in three possible genotypes (del/del; del/ins or ins/ins). The subjects' response to alosetron in the clinical trial setting was reviewed and correlated with genotype. In the double blind, placebo controlled clinical trials; subjects received 12 weeks of treatment with either alosetron or a placebo. A favorable response to alosetron was when a subject reported relief of IBS symptoms during six weeks of the twelve-week trial. The incidence of various other effects, including constipation, was also recorded. The response of subjects to treatment with alosetron in the clinical trial was stratified according to genotype.

[2] = tested on: patients with Irritable Bowel Syndrome (IBS); settings: double blind, placebo controlled studies; cited from earlier work

**Q.** For `Cc1[nH]cnc1CN1CCc2c(c3ccccc3n2C)C1=O` [alosetron, Alosetron hydrochloride], which “Relief of IBS symptoms (subjects achieving relief)” value ([1]; del/del 5HTT genotype subjects (21/31), relief during six weeks of the twelve-week trial) is on record?
**A.** 68%

**Q.** And the “Constipation reported (incidence)” value ([1]; del/del subjects (n=31), 4 subjects)?
**A.** 13%

**Q.** And the “Relief of IBS symptoms (subjects achieving relief)” value ([1]; del/ins 5HTT genotype subjects (21/33))?
**A.** 64%

**Q.** What about the “Constipation reported (incidence)” value ([1]; del/ins subjects (n=33), 10 subjects) of the same compound?
**A.** 30%

**Q.** What about the “Effectiveness versus placebo in producing relief of IBS symptoms” value ([1]; in each of the three 5HTT genotypes) of the same compound?
**A.** more effective than placebo

**Q.** And the “Relief of IBS symptoms (subjects achieving relief)” value ([1]; ins/ins 5HTT genotype subjects (22/38))?
**A.** 58%

**Q.** And the “Constipation reported (incidence)” value ([1]; ins/ins subjects (n=38), 8 subjects)?
**A.** 21%

**Q.** What about the “Constipation reported (incidence)” value ([1]; total group of subjects receiving alosetron (n=102)) of the same compound?
**A.** 21%

**Q.** And the “Effect on pain and bowel function in IBS patients” value [2]?
**A.** reduce pain and improve bowel function
